Where two headings read alike, the source gives them in different places.
Assays:
MIF [1] = target: T1, MIF (Homo sapiens, UniProt P14174); assay: MIF tautomerase activity inhibition (4-HPP substrate, UV 306 nm); assay type: biochemical; conditions: for potency relative to corresponding chloro-substituted intermediate: iodo compound vs chloro intermediate
T1 construct: His tag (C); made in house; host or cells: Escherichia coli BL21 (DE3), pET-20b(+)
T1 sequence (P14174 2-115 limits assumed): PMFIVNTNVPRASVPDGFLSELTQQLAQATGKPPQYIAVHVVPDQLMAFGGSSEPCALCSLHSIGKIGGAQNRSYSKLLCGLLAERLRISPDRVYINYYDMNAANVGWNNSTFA
Protocol: 2. Preparation of recombinant MIF and MIF2.
The detailed procedure to produce C-terminal His-tagged recombinant human MIF was reported in our previous publications.[1,4,5] rhMIF was expressed through transforming a pET-20b(+) plasmid containing the target gene into Escherichia coli BL21 (DE3) according to literature procedures.[6] Overexpression was performed and cells were collected and sonicated.
The obtained supernatant was applied to a medium pressure chromatography system (Biologic Duoflow) equipped with a His trap HP (5 mL) column with detection at 280 nm for the eluent.
The column was washed with a binding buffer containing 50 mM Tris and 10% glycerol at pH 7.4 and eluted with elution buffer containing 500 mM imidazole, 50 mM Tris, 10% glycerol at pH 7.4. The pure fractions (as judged by SDS-PAGE) were pooled and subjected to a PD-10 column (GE healthcare) that was equilibrated with PBS buffer at pH 7.4 to remove the high concentration of imidazole. The collected MIF solution was divided into 50 µL aliquots and stored at –80 °C. Purity of obtained protein was tested by SDS-PAGE and Coomassie staining.
The concentration of protein was determined using the Bradford assay.
(§1) The detailed procedure to produce recombinant human MIF2 was reported in our previous publications.[7] Gene sequences of the human MIF2 gene (Invitrogen) was adapted to bacterial expression. After subcloning into a pET20b(+) expression vector, IPTG-induced expression was performed in E.coli strain BL21(DE3). MIF2 proteins were overproduced overnight and harvested cells were resuspended and sonicated. The soluble fraction was puriﬁed using a Q sepharose column (GE Healthcare) with a gradient of NaCl. The fractions containing MIF2 were brought to 1.7 M ammonium sulfate and loaded on a phenyl sepharose column (GE Healthcare) and eluted with a gradient to 0 M ammonium sulfate in a 20 mM sodium phosphate buffer, pH 8.0. Finally, the proteins were purified by size exclusion chromatography on a Superdex75 column (GE Healthcare) in 20 mM sodium phosphate buffer, pH 8.0, with an elution volume characteristic for trimeric MIF2. The collected protein was concentrated using a VivaSpin centrifugation column with a molecular weight cut off at 5000 D a (Sartorius Stedim Biotech GmbH). Purified proteins were aliquoted, snap frozen in liquid nitrogen, and stored at –80 °C. Purity of obtained protein was tested by SDS-PAGE and coomassie staining. The concentration of protein was determined using the Bradford a ssay.
(§2) 3.1 MIF and MIF2 Inhibition
(§3) The protocol for measuring inhibition of MIF or MIF2 tautomerase enzyme activity was described previously.[5] 500 nM MIF solution (180 µL) or 100 nM MIF2 solution (180 µL) in boric acid buffer ([…], pH 6.2) was mixed with 20 mM EDTA solution (10 µL) in demineralized water. A solution of the desired compound dissolved in DMSO (10 µL) or blank DMSO (10 µL) was added. The resulting mixture was preincubated at room temperature for 10 minutes.
(§4) Subsequently, 50 µL of this mixture was mixed with 50 µL of a 1 mM 4-HPP solution for MIF or 1 mM PP solution for MIF2 in ammonium acetate buffer (50 mM, pH 6.0). Thereafter, MIF or MIF2 tautomerase activity was monitored by measuring the increase of UV absorbance at 306 nm for MIF or 300 nm for MIF2 over time. The MIF or MIF2 tautomerase activity of the mixture with blank DMSO dilution was set to 100% enzyme activity. Noncatalyzed conversion of the substrate in the mixture without MIF or MIF2 was set to 0%. The data acquired from the first 3 minutes of the measurement were used to calculate the initial conversion speed. All experiments were performed in triplicate and data processing was done using the program […]
(§5) Table S1. IC50 values (10 min) and inactivation parameters of synthesized compounds.
(§6) (1 picture or pasted object on this page, not shown here)

MIF2 [2] = target: T2, MIF2 (Homo sapiens, UniProt P30046); assay: MIF2 tautomerase activity inhibition (PP substrate, UV 300 nm); assay type: biochemical
T2 construct: made in house; host or cells: E. coli BL21(DE3), pET20b(+)
Protocol: 2. Preparation of recombinant MIF and MIF2. […]
Purity of obtained protein was tested by SDS-PAGE and Coomassie staining. […]
as §1, §2, §3, §4, §5, §6

MIF2 [3] = target: T2, MIF2; assay: Labeling of recombinant MIF2 by probe 8, SDS-PAGE in-gel fluorescence, competition; assay type: binding; conditions: Figure 2G
Protocol: (§7) 4. Purified protein labeling and Mass spectra
(§8) 4.1 MIF or MIF2 labeling with probe 8
(§9) MIF or MIF2 were diluted to desired concentration with PBS buffer and incubated with probe
(§10) 8 at corresponding concentration and for corresponding time. Subsequently, the mixture was
(§11) denatured (99 °C, 10 min). Labeled protein and free probe were separated by 12% Bis-Tris gel
(§12) (Bio-Rad Laboratories, #4561084). Probe 8 labeled protein was visualized using in-gel
(§13) 4.2 MIF or MIF2 labeling and mass spectra
(§14) Figure S2. Mass spectra of labeled MIF2. (A) Native MIF2 and probe 8 (B) or probe 9 (C)
as §6

MIF [4] = target: T1, MIF; assay: Labeling of recombinant MIF by probe 8, SDS-PAGE in-gel fluorescence, competition; assay type: binding; conditions: pre-treatment of MIF with competitor, Figure 2C, D
Protocol: as §7, §8, §9, §10, §11, §12, §13, §14, §6

MIF [5] = target: T1, MIF; assay: Kitz-Wilson inactivation kinetics on MIF tautomerase; assay type: biochemical; conditions: for KI (inactivation) / kinact: Kitz-Wilson analysis, ±SD, n=3; for KI (inactivation): read-out: KI MIF (inhibition constant); for kinact: read-out: kinact MIF (rate of enzyme inactivation) (converted)
Protocol: (§15) In order to derive the kinetic parameters for inactivation of MIFand MIF2, we employed the approach described by Kitz and Wilson. Briefly, four different concentrations of the inhibitor with four different pre-incubation times were selected. The assay conditions are described above with the difference in incubation time.
(§16) For the data analysis, the pre-incubation times for the different concentration of the inhibitor versus the remaining enzyme activity were plotted, so from the linear regression the slope of each concentration of the probe was obtained ( Table S3). Then the 1/slope versus 1/[inhibitor] were plotted (Figure 4) and from the linear regression line ki was derived from the 1/y -intercept and derived from the slope times the ki as described by Kitz and Wilson.
For example, for the probe 8 the equation is: Y = 7,476*X + 5,069
So, the kinact and the KI values are: kinact =1/5,069 =0.20 min-1
(also on this page, place not known: -1 0 1 2 3 0 50 100 log [FM011] (µM) DDT (%) -1 0 1 2 3 0 50 100 log [ZP308] (µM) DDT activity (%) 0.0 0.5 1.0 1.5 2.0 0 50 100 log [ZP307] (µM) DDT activity (%) 1.4 1.6 1.8 2.0 2.2 0 50 100 log [FM031] (µM) DDT activity (%) pre -incubation cond itions pre -incubation activity o f (Table 1/y-intercept) […]
(§17) Table S4. Kinetics studies results.
(§18) Time-dependent inhibition Kitz and Wilson curve […]
ln (MIF tautomerase activity %)
Time-dependent inhibition on MIF Y = 7,476*X + 5,069
Time-dependent inhibition on MIF Y = 12,07*X + 4,234 […]
ln (MIF2 tautomerase activity %)
(§19) Time-dependent inhibition on MIF2 Y = 299,5*X + 11,14 […]

MIF2 [6] = target: T2, MIF2; assay: Kitz-Wilson inactivation kinetics on MIF2 tautomerase; assay type: biochemical; conditions: Kitz-Wilson analysis, ±SD, n=3
Protocol: as §15, §16
For example, for the probe 8 the equation is: Y = 7,476*X + 5,069 […]
as §17, §18
ln (MIF tautomerase activity %) […]
as §19

[7] = Table 1, tautomerase activity, mean±SD, n=3, read-out: IC50 MIF
[8] = Table 1, tautomerase activity, mean±SD, n=3, read-out: IC50 MIF2
[9] = Table S1, 10 min, read-out: IC50 (µM) MIF
[10] = Table S1, 10 min, read-out: IC50 (µM) MIF2
[11] = Table 2, 10 min pre-incubation, ±SD, n=3, read-out: IC50 MIF
[12] = Table 2, 10 min pre-incubation, ±SD, n=3, read-out: IC50 MIF2

Row | IC50 (MIF [1]; [7]) [µM] | IC50 (MIF2 [2]; [8]) [µM] | IC50 (MIF [1]; [9]) [µM] | IC50 (MIF2 [2]; [10]) [µM] | Compound | also measured
1 | 4 ± 0.98 | > 250 | – | – | Ic1cc(-c2ccccc2)ncn1 [Compound 1, 4‐iodo‐6‐phenylpyrimidine, reference compound] | potency relative to corresponding chloro-substituted intermediate (MIF [1]; Table S1): at least two times more potent
2 | – | – | 16 | > 250 | Clc1cc(-c2ccccc2)ncn1 [Compound 1a] | –
3 | 5 ± 0.46 | 125 ± 15 | – | – | O=C(O)c1ccc(-c2cc(I)ncn2)cc1 [Compound 2] | labeling of MIF2 by probe 8 after pre-incubation with inhibitor (MIF2 [3]): outcompeted; labeling of MIF by probe 8 after prior treatment with inhibitor (MIF [4]): abolished; potency relative to corresponding chloro-substituted intermediate (MIF [1]; Table S1): at least two times more potent
4 | – | – | 17 | > 250 | O=C(O)c1ccc(-c2cc(Cl)ncn2)cc1 [Compound 2a] | –
5 | > 250 | > 250 | – | – | Cc1nc(I)cc(-c2ccc(C(=O)O)cc2)n1 [Compound 3] | –
6 | – | – | 95 | 103 | Cc1nc(Cl)cc(-c2ccc(C(=O)O)cc2)n1 [Compound 3a] | IC50 (MIF [1]; Table S2 dose-inhibition curves, read-out: IC50 MIF tautomerase): 72 ± 17 µM; IC50 (MIF2 [2]; Table S3 dose-inhibition curves (DDT activity), read-out: IC50 MIF2 tautomerase): 107 ± 6 µM
7 | 15 ± 7.5 | > 250 | – | – | O=C(O)c1ccc(-c2cc(I)nc(N3CCOCC3)n2)cc1 [Compound 4] | potency relative to corresponding chloro-substituted intermediate (MIF [1]; Table S1): at least two times more potent
8 | – | – | 174 | > 250 | O=C(O)c1ccc(-c2cc(Cl)nc(N3CCOCC3)n2)cc1 [Compound 4a] | –
9 | 59 ± 6.3 | > 250 | – | – | O=C(O)c1ccc(-c2cc(I)nc(-c3ccccc3)n2)cc1 [Compound 5, 4-(6-Iodo-2-phenylpyrimidin-4-yl)benzoic acid] | –
10 | – | – | 36 | 85 | O=C(O)c1ccc(-c2cc(Cl)nc(-c3ccccc3)n2)cc1 [Compound 5a, 4-(6-Chloro-2-phenylpyrimidin-4-yl)benzoic acid] | –
11 | 56 ± 12 | > 250 | – | – | Cc1c(I)ncnc1-c1ccc(C(=O)O)cc1 [Compound 6, 4-(6-Iodo-5-methylpyrimidin-4-yl)benzoic acid] | potency relative to corresponding chloro-substituted intermediate (MIF [1]; Table S1): at least two times more potent
12 | – | – | > 250 | > 250 | Cc1c(Cl)ncnc1-c1ccc(C(=O)O)cc1 [Compound 6a, 4-(6-Chloro-5-methylpyrimidin-4-yl)benzoic acid] | –
13 | 0.63 ± 0.06 | > 250 | – | – | O=[N+]([O-])c1ccc(-c2cc(I)ncn2)cc1 [Compound 7, 4-Iodo-6-(4-nitrophenyl)pyrimidine] | KI (inactivation) (MIF [5]): 3.9 ± 0.7 µM; kinact (MIF [5]): 0.00467 s⁻¹; IC50 (MIF [1]; [11]): 0.63 ± 0.06 µM; selectivity for MIF over MIF2 (MIF [1]; from tautomerase IC50 values): > 400 fold; potency relative to corresponding chloro-substituted intermediate (MIF [1]; Table S1): at least two times more potent; IC50 (MIF2 [2]; [12]): > 250 µM
14 | – | – | 1.4 | > 250 | O=[N+]([O-])c1ccc(-c2cc(Cl)ncn2)cc1 [Compound 7a, 4-Chloro-6-(4-nitrophenyl)pyrimidine] | –
15 | – | – | 1.7 | 83 | Nc1ccc(-c2cc(Cl)ncn2)cc1 [Compound 8a, 4-(6-Chloropyrimidin-4-yl)aniline] | –
16 | – | – | – | – | O=C(CCCC[C@@H]1SC[C@@H]2NC(=O)N[C@@H]21)NCCNC(=O)c1ccc(-c2cc(I)ncn2)cc1 [Compound 9] | kinact MIF2 (rate of enzyme inactivation) (MIF2 [6]): 0.061 ± 0.010 min⁻¹; KI (inactivation) (MIF2 [6]; read-out: KI MIF2 (inhibition constant)): 85 ± 8.6 µM; kinact (MIF2 [6]; read-out: kinact MIF2 (rate of enzyme inactivation)): 0.001 to 0.0015 s⁻¹; KI on MIF relative to IC50 (MIF [5]; KI higher than IC50): about 10 times; KI (inactivation) (MIF [5]): 2.8 ± 0.67 µM; kinact (MIF [5]): 0.004 s⁻¹; IC50 (MIF [1]; [11]): 0.24 ± 0.05 µM; IC50 (MIF [1]; approximate, read-out: IC50 on MIF): ~0.2 µM; improvement of potency for MIF2 inhibition compared to parental inhibitor 2 (MIF2 [2]): 2–6 factor; IC50 (MIF2 [2]; [12]): 78 ± 7.7 µM
17 | – | – | 112 | > 250 | CC(C)c1nc(I)cc(-c2ccc(C(=O)O)cc2)n1 [Compound 11, 4-(6-Iodo-2-isopropylpyrimidin-4-yl)benzoic acid] | –
18 | – | – | > 250 | > 250 | CC(C)c1nc(Cl)cc(-c2ccc(C(=O)O)cc2)n1 [Compound 11a, 4-(6-Chloro-2-isopropylpyrimidin-4-yl)benzoic acid] | –

From PMC9299485, “4‐Iodopyrimidine Labeling Reveals Nuclear Translocation and Nuclease Activity for Both MIF and MIF2” (Chemistry (Weinheim an Der Bergstrasse, Germany), 2021)
